In ChEMBL document CHEMBL1201862, “PubChem BioAssay data set” (2004):
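Following 48 hours of exposure in 96-well plates, responses at five concentrations were used to interpolate endpoints linearly. At the GI50, growth is halved.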 The source made the active and inactive calls. Cut-off read from the data, not from the text of the source: active = GI50 up to about 1.1 µM and inactive = higher.

Assays:
Test in all cases: NCI tumour cell line growth inhibition, 48 h
UACC-62 = system: UACC-62
OVCAR-5 = system: OVCAR-5
KM12 = system: KM12
SF-268 = system: SF-268
LXFL 529 = system: LXFL 529
UACC-257 = system: UACC-257
HOP-92 = system: HOP-92
MOLT-4 = system: MOLT-4
TK-10 = system: TK-10
DMS-114 = system: DMS-114
SK-OV-3 = system: SK-OV-3
K562 = system: K562
HCC 2998 = system: HCC 2998
HL-60 = system: HL-60
CAKI-1 = system: CAKI-1
SNB-75 = system: SNB-75
HCT-15 = system: HCT-15
NCI-H460 = system: NCI-H460
Malme-3M = system: Malme-3M
HOP-62 = system: HOP-62
RXF 631 = system: RXF 631
HCT-116 = system: HCT-116
OVCAR-3 = system: OVCAR-3
SNB-78 = system: SNB-78
OVCAR-8 = system: OVCAR-8
HT-29 = system: HT-29
NCI-H522 = system: NCI-H522
SN12C = system: SN12C
SF-539 = system: SF-539
SK-MEL-28 = system: SK-MEL-28
U-251 = system: U-251
A498 = system: A498
ACHN = system: ACHN
M19-MEL = system: M19-MEL
786-0 = system: 786-0
XF498 = system: XF498
EKVX = system: EKVX
OVCAR-4 = system: OVCAR-4
A549 = system: A549
DMS-273 = system: DMS-273
SNB-19 = system: SNB-19
SW-620 = system: SW-620
CCRF-CEM = system: CCRF-CEM
IGROV-1 = system: IGROV-1
NCI-H23 = system: NCI-H23
SF-295 = system: SF-295
M14 = system: M14
NCI-H226 = system: NCI-H226
RPMI-8226 = system: RPMI-8226
DLD-1 = system: DLD-1
COLO 205 = system: COLO 205
RXF 393 = system: RXF 393
UO-31 = system: UO-31
SK-MEL-2 = system: SK-MEL-2
KM-20L2 = system: KM-20L2

Question: Which results are given for N#C/C(=C\c1cc(O)ccc1O)C(N)=O?
Answer: GI50 (UACC-62): 30.4 µM (inactive); GI50 (OVCAR-5): > 100 µM (inactive); GI50 (KM12): 46.1 µM (inactive); GI50 (SF-268): 35.1 µM (inactive); GI50 (LXFL 529): 35.6 µM (inactive); GI50 (UACC-257): 28.4 µM (inactive); GI50 (HOP-92): 34.4 µM (inactive); GI50 (MOLT-4): 27 µM (inactive); GI50 (TK-10): 50.8 µM (inactive); GI50 (DMS-114): 24.8 µM (inactive); GI50 (SK-OV-3): 67.6 µM (inactive); GI50 (K562): 27 µM (inactive); GI50 (HCC 2998): 67.3 µM (inactive); GI50 (HL-60): 14 µM (inactive); GI50 (CAKI-1): 46.2 µM (inactive); GI50 (SNB-75): 14.6 µM (inactive); GI50 (HCT-15): 44.2 µM; GI50 (NCI-H460): 40.7 µM (inactive); GI50 (Malme-3M): 74 µM (inactive); GI50 (HOP-62): > 100 µM (inactive); GI50 (RXF 631): 58.1 µM (inactive); GI50 (HCT-116): 63.2 µM (inactive); GI50 (OVCAR-3): 38.6 µM (inactive); GI50 (SNB-78): 25.6 µM (inactive); GI50 (OVCAR-8): 50.6 µM (inactive); GI50 (HT-29): 38.8 µM (inactive); GI50 (NCI-H522): 18.2 µM (inactive); GI50 (SN12C): 50.4 µM (inactive); GI50 (SF-539): 50.7 µM (inactive); GI50 (SK-MEL-28): 37.1 µM (inactive); GI50 (U-251): 98.4 µM (inactive); GI50 (A498): 41 µM (inactive); GI50 (ACHN): 26.8 µM (inactive); GI50 (M19-MEL): 51.3 µM (inactive); GI50 (786-0): 29.4 µM (inactive); GI50 (XF498): 65.3 µM (inactive); GI50 (EKVX): 33.1 µM (inactive); GI50 (OVCAR-4): 54 µM (inactive); GI50 (A549): 78.5 µM (inactive); GI50 (DMS-273): 47.3 µM (inactive); GI50 (SNB-19): 57.8 µM (inactive); GI50 (SW-620): 49.9 µM (inactive); GI50 (CCRF-CEM): 21.5 µM (inactive); GI50 (IGROV-1): 99.5 µM (inactive); GI50 (NCI-H23): 36.2 µM (inactive); GI50 (SF-295): 47.6 µM (inactive); GI50 (M14): 38.6 µM (inactive); GI50 (NCI-H226): 34 µM (inactive); GI50 (RPMI-8226): 27.2 µM (inactive); GI50 (DLD-1): 70.6 µM (inactive); GI50 (COLO 205): 33.3 µM (inactive); GI50 (RXF 393): 19 µM (inactive); GI50 (UO-31): 35.7 µM (inactive); GI50 (SK-MEL-2): 42.5 µM (inactive); GI50 (KM-20L2): 46.8 µM (inactive)
